# The source made the active and inactive calls. The rule behind the calls is not given here.
# How the values were obtained:
# MC-38 [1] = experiment: Antiproliferative activity against mouse MC38 cells measured after 48 hrs incubation by MTT assay relative to control; assay type: functional, cell-based; details: MC-38, 48 h
# Histone deacetylase 8 = target: T1, Histone deacetylase 8 (Homo sapiens, UniProt Q9BY41); experiment: Inhibition of human recombinant HDAC8 pre-incubated with compounds for 10 mins measured followed by 60 mins of substrate addition
# T1 sequence (Q9BY41 whole entry): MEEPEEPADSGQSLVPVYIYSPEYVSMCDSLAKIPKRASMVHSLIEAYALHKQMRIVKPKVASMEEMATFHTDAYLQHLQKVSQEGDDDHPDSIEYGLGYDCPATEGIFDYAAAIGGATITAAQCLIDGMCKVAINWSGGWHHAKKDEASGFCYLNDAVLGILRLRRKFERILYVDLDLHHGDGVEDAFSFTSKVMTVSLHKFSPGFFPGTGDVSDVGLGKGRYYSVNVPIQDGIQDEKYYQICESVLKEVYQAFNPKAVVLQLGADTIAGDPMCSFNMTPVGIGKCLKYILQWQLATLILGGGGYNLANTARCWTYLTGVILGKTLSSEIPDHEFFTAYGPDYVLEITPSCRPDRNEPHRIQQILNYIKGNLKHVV
# B16-F10 (Mus musculus) = experiment: Antiproliferative activity against mouse B16-F10 cells measured after 48 hrs incubation by MTT assay relative to control; details: B16-F10, 48 h
# Histone deacetylase 1 = Histone deacetylase 1 (Homo sapiens, UniProt Q13547); experiment: Inhibition of human recombinant HDAC1 pre-incubated with compounds for 10 mins measured followed by 60 mins of substrate addition
# Chain of Histone deacetylase 1 (Q13547 whole entry): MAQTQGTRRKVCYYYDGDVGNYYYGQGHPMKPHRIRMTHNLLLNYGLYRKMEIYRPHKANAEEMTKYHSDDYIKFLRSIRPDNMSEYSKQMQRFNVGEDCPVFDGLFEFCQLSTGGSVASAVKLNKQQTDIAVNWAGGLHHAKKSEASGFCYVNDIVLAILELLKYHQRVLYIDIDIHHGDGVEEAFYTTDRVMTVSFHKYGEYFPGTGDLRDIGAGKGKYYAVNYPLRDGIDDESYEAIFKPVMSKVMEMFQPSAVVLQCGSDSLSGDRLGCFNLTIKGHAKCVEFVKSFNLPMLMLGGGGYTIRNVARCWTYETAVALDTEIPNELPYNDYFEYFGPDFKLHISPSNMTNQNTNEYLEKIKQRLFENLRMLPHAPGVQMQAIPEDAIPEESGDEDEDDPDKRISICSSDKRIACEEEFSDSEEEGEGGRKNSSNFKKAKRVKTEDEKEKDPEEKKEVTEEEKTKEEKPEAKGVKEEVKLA
# HepG2 = experiment: Antiproliferative activity against human HepG2 cells measured after 48 hrs incubation by MTT assay relative to control; assay type: functional, cell-based; details: HepG2, 48 h
# [2] = Antiproliferative activity against […] cells measured after 48 hrs incubation by MTT assay relative to control; assay type: functional, cell-based; details: Mus musculus, Lung cancer cell line
# [3] = target: T2, Protein deacetylase HDAC6 (Homo sapiens, UniProt Q9UBN7); experiment: Inhibition of human recombinant HDAC6 pre-incubated with compounds for 10 mins measured followed by 60 mins of substrate addition
# T2 sequence (Q9UBN7 whole entry): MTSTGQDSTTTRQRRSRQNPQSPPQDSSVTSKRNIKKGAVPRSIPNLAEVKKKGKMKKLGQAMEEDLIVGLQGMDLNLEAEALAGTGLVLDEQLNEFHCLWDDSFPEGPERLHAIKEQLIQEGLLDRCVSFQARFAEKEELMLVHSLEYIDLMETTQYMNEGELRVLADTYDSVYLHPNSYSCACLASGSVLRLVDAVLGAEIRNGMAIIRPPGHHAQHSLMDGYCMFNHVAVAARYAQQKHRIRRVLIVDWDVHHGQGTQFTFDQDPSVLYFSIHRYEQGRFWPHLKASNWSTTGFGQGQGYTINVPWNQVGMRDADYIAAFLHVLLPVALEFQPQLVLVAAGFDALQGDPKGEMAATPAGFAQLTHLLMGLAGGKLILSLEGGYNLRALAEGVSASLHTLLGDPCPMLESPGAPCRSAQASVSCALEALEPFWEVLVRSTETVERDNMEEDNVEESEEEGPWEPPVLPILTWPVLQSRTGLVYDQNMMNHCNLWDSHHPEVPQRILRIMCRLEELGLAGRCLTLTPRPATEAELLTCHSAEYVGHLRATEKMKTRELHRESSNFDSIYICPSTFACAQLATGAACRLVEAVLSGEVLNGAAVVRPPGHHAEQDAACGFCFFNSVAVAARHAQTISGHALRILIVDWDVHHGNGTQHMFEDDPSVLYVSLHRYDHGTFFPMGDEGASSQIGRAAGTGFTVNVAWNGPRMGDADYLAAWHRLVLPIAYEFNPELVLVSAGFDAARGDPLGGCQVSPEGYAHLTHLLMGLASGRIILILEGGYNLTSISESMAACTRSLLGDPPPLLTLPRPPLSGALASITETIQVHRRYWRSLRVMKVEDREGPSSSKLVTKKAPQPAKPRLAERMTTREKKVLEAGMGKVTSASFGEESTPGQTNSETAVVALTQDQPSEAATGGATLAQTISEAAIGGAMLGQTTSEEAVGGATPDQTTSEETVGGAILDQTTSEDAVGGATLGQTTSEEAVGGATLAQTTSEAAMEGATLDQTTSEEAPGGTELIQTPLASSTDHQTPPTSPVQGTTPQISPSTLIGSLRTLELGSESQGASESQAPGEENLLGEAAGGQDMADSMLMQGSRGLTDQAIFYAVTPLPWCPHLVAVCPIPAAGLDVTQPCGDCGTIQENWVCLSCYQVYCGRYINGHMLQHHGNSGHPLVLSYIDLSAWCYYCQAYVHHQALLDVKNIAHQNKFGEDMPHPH
# MCF7 = experiment: Antiproliferative activity against human MCF7 cells measured after 48 hrs incubation by MTT assay relative to control; assay type: functional, cell-based; details: MCF7, 48 h
# Histone deacetylase 3 = Histone deacetylase 3 (Homo sapiens, UniProt O15379); experiment: Inhibition of human recombinant HDAC3 pre-incubated with compounds for 10 mins measured followed by 60 mins of substrate addition
# Chain of Histone deacetylase 3 (O15379 whole entry): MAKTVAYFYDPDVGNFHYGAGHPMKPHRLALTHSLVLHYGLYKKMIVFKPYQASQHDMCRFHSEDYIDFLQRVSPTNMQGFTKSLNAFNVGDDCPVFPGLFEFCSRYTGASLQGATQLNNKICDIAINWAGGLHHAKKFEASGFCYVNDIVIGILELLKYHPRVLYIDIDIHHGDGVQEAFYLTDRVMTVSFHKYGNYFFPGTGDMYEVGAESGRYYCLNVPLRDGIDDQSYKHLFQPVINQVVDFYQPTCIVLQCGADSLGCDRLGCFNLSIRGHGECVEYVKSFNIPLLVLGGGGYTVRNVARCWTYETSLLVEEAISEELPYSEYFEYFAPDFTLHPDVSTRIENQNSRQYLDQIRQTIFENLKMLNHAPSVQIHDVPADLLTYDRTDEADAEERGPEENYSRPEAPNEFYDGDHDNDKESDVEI
# HCT-116 = experiment: Antiproliferative activity against human HCT-116 cells measured after 48 hrs incubation by MTT assay relative to control; assay type: functional, cell-based; details: HCT-116, 48 h
# B16-F10 = experiment: Antiproliferative activity against mouse B16-F10 cells at 1 uM measured after 48 hrs incubation by MTT assay relative to control
# HeLa = experiment: Antiproliferative activity against human HeLa cells measured after 48 hrs incubation by MTT assay relative to control; assay type: functional, cell-based
# Histone deacetylase 7 = target: T3, Histone deacetylase 7 (Homo sapiens, UniProt Q8WUI4); experiment: Inhibition of human recombinant HDAC7 pre-incubated with compounds for 10 mins measured followed by 60 mins of substrate addition
# T3 sequence (Q8WUI4 whole entry): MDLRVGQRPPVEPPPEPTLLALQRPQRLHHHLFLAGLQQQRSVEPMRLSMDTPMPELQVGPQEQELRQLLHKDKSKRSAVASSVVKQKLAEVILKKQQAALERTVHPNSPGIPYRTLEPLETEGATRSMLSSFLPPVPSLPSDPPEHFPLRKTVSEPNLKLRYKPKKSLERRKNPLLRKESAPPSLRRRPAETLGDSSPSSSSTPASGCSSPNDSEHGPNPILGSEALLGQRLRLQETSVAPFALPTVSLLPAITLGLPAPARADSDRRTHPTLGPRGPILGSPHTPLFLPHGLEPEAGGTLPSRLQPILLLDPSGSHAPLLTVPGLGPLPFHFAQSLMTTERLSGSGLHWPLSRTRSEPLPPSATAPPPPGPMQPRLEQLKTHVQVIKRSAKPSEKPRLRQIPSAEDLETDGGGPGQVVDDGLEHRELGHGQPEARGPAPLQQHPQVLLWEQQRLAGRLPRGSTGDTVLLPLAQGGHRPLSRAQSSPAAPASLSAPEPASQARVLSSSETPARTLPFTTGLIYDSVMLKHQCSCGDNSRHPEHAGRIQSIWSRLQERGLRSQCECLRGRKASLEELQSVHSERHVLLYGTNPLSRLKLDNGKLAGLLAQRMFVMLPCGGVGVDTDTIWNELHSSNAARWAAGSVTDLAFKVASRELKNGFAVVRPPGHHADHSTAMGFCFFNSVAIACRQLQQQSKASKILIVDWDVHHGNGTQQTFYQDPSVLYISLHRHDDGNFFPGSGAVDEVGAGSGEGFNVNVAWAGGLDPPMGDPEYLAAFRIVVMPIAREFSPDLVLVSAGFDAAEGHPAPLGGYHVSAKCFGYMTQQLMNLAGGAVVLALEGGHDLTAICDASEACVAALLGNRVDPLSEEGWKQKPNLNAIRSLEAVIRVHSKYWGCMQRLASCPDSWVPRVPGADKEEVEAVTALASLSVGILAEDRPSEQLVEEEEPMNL
# MC-38 [4] = experiment: Effect on acetylated alpha-tubulin in mouse MC38 cells at 0.1 to 2 uM measured after 24 hrs incubation by Western blot analysis; assay type: functional, cell-based; details: dose 0.1-2 µM
# MC-38 [5] = experiment: Increase in acetylated H3 in mouse MC38 cells at 0.1 to 2 uM measured after 24 hrs incubation by Western blot analysis; assay type: functional, cell-based; details: dose 0.1-2 µM
# MC-38 [6] = experiment: Effect on acetylated SMC3 in mouse MC38 cells at 0.1 to 2 uM measured after 24 hrs incubation by Western blot analysis; assay type: functional, cell-based; details: dose 0.1-2 µM
SMILES,IC50 (MC-38 [1]),IC50 (Histone deacetylase 8),IC50 (B16-F10 (Mus musculus)),IC50 (Histone deacetylase 1),IC50 (HepG2),IC50 [2],IC50 [3],IC50 (MCF7),IC50 (Histone deacetylase 3),IC50 (HCT-116),Activity (B16-F10),IC50 (HeLa),IC50 (Histone deacetylase 7),Activity (MC-38 [4]),Activity (MC-38 [5]),Activity (MC-38 [6])
CCCNNC(=O)c1ccc(CNC(=O)c2cnc(-c3ccc4ccccc4c3)[nH]2)cc1,3.47 µM,> 10 µM,1.97 µM,1.74 µM,0.69 µM,1.37 µM,> 10 µM,2.11 µM,0.074 µM,0.22 µM,52.99%,1.67 µM,> 10 µM,–,–,–
CCCNNC(=O)c1ccc(CNC(=O)c2cnc(-c3ccc(OC)cc3)[nH]2)cc1,–,> 10 µM,–,2.36 µM,–,–,> 10 µM,–,0.088 µM,–,33.01%,–,> 10 µM,–,–,–
Nc1ccccc1NC(=O)c1ccc(CNC(=O)c2cnc(-c3ccc4ccccc4c3)[nH]2)cc1,–,> 10 µM,–,4.62 µM,–,–,> 10 µM,–,0.1 µM,–,28.15%,–,> 10 µM,–,–,–
Nc1ccccc1NC(=O)c1ccc(CNC(=O)c2cnc(-c3ccccc3)[nH]2)cc1,–,> 10 µM,–,1.41 µM,–,–,> 10 µM,–,0.12 µM,–,15.84%,–,> 10 µM,–,–,–
Nc1ccccc1NC(=O)c1ccc(CNC(=O)OCc2cccnc2)cc1 [ENTINOSTAT],> 10 µM,–,9.36 µM,–,4.08 µM,2.87 µM,–,8.99 µM,–,–,16.1%,> 10 µM,–,inactive,Active,inactive
Nc1ccccc1NC(=O)c1ccc(CNC(=O)c2cnc(-c3ccc4occc4c3)[nH]2)cc1,–,> 10 µM,–,4.18 µM,–,–,> 10 µM,–,0.091 µM,–,31.86%,–,> 10 µM,–,–,–
CCCNNC(=O)c1ccc(CNC(=O)c2cnc(-c3ccc(F)cc3)[nH]2)cc1,–,> 10 µM,–,0.96 µM,–,–,9.02 µM,–,0.13 µM,–,37.64%,–,> 10 µM,–,–,–
Nc1ccccc1NC(=O)c1ccc(CNC(=O)c2cnc(-c3cccc4ccccc34)[nH]2)cc1,–,> 10 µM,–,2.43 µM,–,–,9.43 µM,–,0.096 µM,–,39.28%,–,> 10 µM,–,–,–
CCCNNC(=O)c1ccc(CNC(=O)c2ncc(CNc3ccccc3)s2)cc1,2.35 µM,–,1.77 µM,–,0.67 µM,0.25 µM,–,1.76 µM,–,0.31 µM,57.29%,3.77 µM,–,–,–,–
CCCNNC(=O)c1ccc(CNC(=O)c2cnc(-c3ccc4c(c3)OCCO4)[nH]2)cc1,–,> 10 µM,–,3.91 µM,–,–,> 10 µM,–,0.29 µM,–,23.11%,–,> 10 µM,–,–,–
CCCNNC(=O)c1ccc(CNC(=O)c2cnc(-c3ccnc4ccccc34)[nH]2)cc1,–,> 10 µM,–,3.24 µM,–,–,> 10 µM,–,0.17 µM,–,13.07%,–,> 10 µM,–,–,–
COc1ccc(-c2ncc(C(=O)NCc3ccc(C(=O)Nc4ccccc4N)cc3)[nH]2)cc1,–,> 10 µM,–,4.45 µM,–,–,> 10 µM,–,0.1 µM,–,28.07%,–,> 10 µM,–,–,–
Nc1ccccc1NC(=O)c1ccc(CNC(=O)c2cnc(-c3ccc4c(c3)OCCO4)[nH]2)cc1,–,> 10 µM,–,3.66 µM,–,–,> 10 µM,–,0.33 µM,–,13.1%,–,> 10 µM,–,–,–
CCCNNC(=O)c1ccc(CNC(=O)c2cnc(-c3ccccc3)[nH]2)cc1,5.3 µM,> 10 µM,3.06 µM,2.06 µM,0.5 µM,2.19 µM,8.91 µM,2.29 µM,0.066 µM,0.16 µM,49.33%,1.97 µM,> 10 µM,–,–,–
